This note sets out measurements from BindingDB's records for doi:10.1021/jm0201924 (Senju Pharmaceutical, 2003).

Each structure is given as a SMILES string. pIC50: −log10 of the molar value.

The assay addresses Calpain-1 (Sus scrofa). The experiment in a line: In vitro inhibition of porcine mu-calpain.
With `CC(C)[C@H](NS(=O)(=O)c1ccc(F)cc1)C(=O)N[C@@H](C=O)Cc1ccccc1` [2-(4-Fluoro-benzenesulfonylamino)-N-(1-formyl-2-phenyl-ethyl)-3-methyl-butyramide], the pIC50 was 7.57.
In turn, `CC(C)C[C@H](C=O)NC(=O)[C@@H](NS(=O)(=O)c1ccc(Cl)cc1)C(C)C` [2-(4-Chloro-benzenesulfonylamino)-N-(1-formyl-3-methyl-butyl)-3-methyl-butyramide] had a pIC50 of 7.51.
With `Cc1ccc(S(=O)(=O)N[C@H](C(=O)N[C@@H](C=O)Cc2ccccc2)C(C)C)cc1` [N-(1-Formyl-2-phenyl-ethyl)-3-methyl-2-(toluene-4-sulfonylamino)-butyramide], the pIC50 was 7.74.
Then `Cc1ccc(S(=O)(=O)N[C@H](C(=O)N[C@@H](C=O)CC(C)C)C(C)C)cc1` [N-(1-Formyl-3-methyl-butyl)-3-methyl-2-(toluene-4-sulfonylamino)-butyramide], with 7.55; and `CC(C)C[C@H](C=O)NC(=O)[C@@H](NS(C)(=O)=O)C(C)C` [N-(1-Formyl-3-methyl-butyl)-2-methanesulfonylamino-3-methyl-butyramide], with 6.08; and `CC(C)C[C@H](C=O)NC(=O)[C@H](C(C)C)N(C)S(=O)(=O)c1ccc(F)cc1` [2-[(4-Fluoro-benzenesulfonyl)-methyl-amino]-N-(1-formyl-3-methyl-butyl)-3-methyl-butyramide], with 4.68.
Then `CC(C)C[C@H](C=O)NC(=O)[C@@H](NS(=O)(=O)c1ccc2ccccc2c1)C(C)C` [N-(1-Formyl-3-methyl-butyl)-3-methyl-2-(naphthalene-2-sulfonylamino)-butyramide], with 8.00; and `CC(C)[C@H](NS(=O)(=O)c1ccc(F)cc1)C(=O)N[C@@H](C=O)Cc1c[nH]c2ccccc12` [2-(4-Fluoro-benzenesulfonylamino)-N-[1-formyl-2-(1H-indol-3-yl)-ethyl]-3-methyl-butyramide], with 7.64.
`CC(C)[C@H](NS(=O)(=O)c1ccc(F)cc1)C(=O)N[C@H](C)C=O` [2-(4-Fluoro-benzenesulfonylamino)-3-methyl-N-(1-methyl-2-oxo-ethyl)-butyramide] showed a pIC50 of 6.20.
Then `CC(C)[C@H](NS(=O)(=O)c1ccc(Cl)cc1)C(=O)N[C@@H](C=O)Cc1ccccc1` [2-(4-Chloro-benzenesulfonylamino)-N-(1-formyl-2-phenyl-ethyl)-3-methyl-butyramide], with 7.85; and `CC(C)[C@H](NS(=O)(=O)c1ccc2ccccc2c1)C(=O)N[C@@H](C=O)Cc1ccccc1` [N-(1-Formyl-2-phenyl-ethyl)-3-methyl-2-(naphthalene-2-sulfonylamino)-butyramide], with 7.85; and `CC(C)[C@H](NS(=O)(=O)c1ccc(Cl)cc1)C(=O)N[C@@H](C=O)Cc1c[nH]c2ccccc12` [2-(4-Chloro-benzenesulfonylamino)-N-[1-formyl-2-(1H-indol-3-yl)-ethyl]-3-methyl-butyramide], with 7.89.
